Results from PubChem BioAssay AID1918998 (Molecular Pharmacology Branch, DTP, NCI, 2023).
Values belong to the compound of their own block, whether it stands above or below them.

System: 521955-158-R2-J5-PDC complex spheroid growth
Test: Anticancer human tumor 521955-158-R2-J5-PDC patient-derived pancreatic carcinoma cell line growth inhibition [AhR]
Conditions: for IC50: curve of first compound; for viability, T/C: stronger effect = lower value
In short: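 Spheroids combined tumor cells with HUVEC endothelial cells and human MSCs as stroma. AhR antagonists were paired with standard or investigational drugs, each dosed in half-log steps down from near clinical Cmax, or from 10 microM where Cmax was unknown.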

[1] = second compound 0.1 µM, first compound 0.0316 µM
[2] = second compound 0.1 µM, first compound 0.1 µM
[3] = second compound 0.1 µM, first compound 0.316 µM
[4] = second compound 0.1 µM, first compound 1 µM
[5] = second compound 0.1 µM, first compound 3.16 µM
[6] = second compound 0.1 µM, first compound 10 µM
[7] = second compound 0.316 µM, first compound 0.0316 µM
[8] = second compound 0.316 µM, first compound 0.1 µM
[9] = second compound 0.316 µM, first compound 0.316 µM
[10] = second compound 0.316 µM, first compound 1 µM
[11] = second compound 0.316 µM, first compound 3.16 µM
[12] = second compound 0.316 µM, first compound 10 µM
[13] = second compound 1 µM, first compound 0.0316 µM
[14] = second compound 1 µM, first compound 0.1 µM
[15] = second compound 1 µM, first compound 0.316 µM
[16] = second compound 1 µM, first compound 1 µM
[17] = second compound 1 µM, first compound 3.16 µM
[18] = second compound 1 µM, first compound 10 µM
[19] = second compound 3.16 µM, first compound 0.0316 µM
[20] = second compound 3.16 µM, first compound 0.1 µM
[21] = second compound 3.16 µM, first compound 0.316 µM
[22] = second compound 3.16 µM, first compound 1 µM
[23] = second compound 3.16 µM, first compound 3.16 µM
[24] = second compound 3.16 µM, first compound 10 µM
[25] = second compound 10 µM, first compound 0.0316 µM
[26] = second compound 10 µM, first compound 0.1 µM
[27] = second compound 10 µM, first compound 0.316 µM
[28] = second compound 10 µM, first compound 1 µM
[29] = second compound 10 µM, first compound 3.16 µM
[30] = second compound 10 µM, first compound 10 µM
[31] = second compound 0.1 µM, first compound 0.00316 µM
[32] = second compound 0.1 µM, first compound 0.01 µM
[33] = second compound 0.316 µM, first compound 0.00316 µM
[34] = second compound 0.316 µM, first compound 0.01 µM
[35] = second compound 1 µM, first compound 0.00316 µM
[36] = second compound 1 µM, first compound 0.01 µM
[37] = second compound 3.16 µM, first compound 0.00316 µM
[38] = second compound 3.16 µM, first compound 0.01 µM
[39] = second compound 10 µM, first compound 0.00316 µM
[40] = second compound 10 µM, first compound 0.01 µM
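For viability, T/C in this document: spheroids mix tumor cells with HUVEC endothelium and human MSC stroma; luminescence taken as viability surrogate after a week of drug exposure.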

Structure (SMILES): CC(C)c1c(-c2ccccc2)nc2c(C#N)c[nH]n2c1=O + CC(CO)NC(=O)c1cc(-c2ccc(Cl)cc2)nn(-c2cnn(C)c2)c1=O
IC50 (second compound 0.1 µM): > 10 µM
IC50 (second compound 0.316 µM): > 10 µM
IC50 (second compound 1 µM): > 10 µM
IC50 (second compound 3.16 µM): > 10 µM
IC50 (second compound 10 µM): > 10 µM
viability, T/C [1]: 91%
viability, T/C [2]: 83.6%
viability, T/C [3]: 89.4%
viability, T/C [4]: 91.4%
viability, T/C [5]: 66.3%
viability, T/C [6]: 78.2%
viability, T/C [7]: 80.1%
viability, T/C [8]: 103%
viability, T/C [9]: 75.7%
viability, T/C [10]: 86.1%
viability, T/C [11]: 73.3%
viability, T/C [12]: 88.5%
viability, T/C [13]: 82.1%
viability, T/C [14]: 89.4%
viability, T/C [15]: 93.5%
viability, T/C [16]: 94.2%
viability, T/C [17]: 70.7%
viability, T/C [18]: 51.9%
viability, T/C [19]: 98.5%
viability, T/C [20]: 93.7%
viability, T/C [21]: 97%
viability, T/C [22]: 96.5%
viability, T/C [23]: 72%
viability, T/C [24]: 70%
viability, T/C [25]: 84.5%
viability, T/C [26]: 81.2%
viability, T/C [27]: 86.4%
viability, T/C [28]: 71.8%
viability, T/C [29]: 54.6%
viability, T/C [30]: 54.7%

Structure (SMILES): COc1cc(C2c3cc4c(cc3C(OC3OC5COC(C)OC5C(O)C3O)C3COC(=O)C23)OCO4)cc(OC)c1O (stereo not given) + Cc1ccccc1N=Nc1ccc(NC(=O)c2ccnn2C)c(C)c1
IC50 (second compound 0.1 µM): 0.755 µM
IC50 (second compound 0.316 µM): 0.668 µM
IC50 (second compound 1 µM): 1.01 µM
IC50 (second compound 3.16 µM): 0.88 µM
IC50 (second compound 10 µM): 1.58 µM
viability, T/C [1]: 99.3%
viability, T/C [2]: 78.2%
viability, T/C [3]: 81.2%
viability, T/C [4]: 39%
viability, T/C [5]: 26%
viability, T/C [6]: 17.6%
viability, T/C [7]: 83.6%
viability, T/C [8]: 108%
viability, T/C [9]: 83.4%
viability, T/C [10]: 31.9%
viability, T/C [11]: 23.9%
viability, T/C [12]: 20%
viability, T/C [13]: 131%
viability, T/C [14]: 97.3%
viability, T/C [15]: 80%
viability, T/C [16]: 49%
viability, T/C [17]: 22.8%
viability, T/C [18]: 18.4%
viability, T/C [19]: 139%
viability, T/C [20]: 118%
viability, T/C [21]: 104%
viability, T/C [22]: 40.6%
viability, T/C [23]: 27.3%
viability, T/C [24]: 17.9%
viability, T/C [25]: 131%
viability, T/C [26]: 140%
viability, T/C [27]: 112%
viability, T/C [28]: 59.9%
viability, T/C [29]: 38.5%
viability, T/C [30]: 22.9%

Structure (SMILES): Nc1ccn(C2OC(CO)C(O)C2(F)F)c(=O)n1 (stereo not given) + Cc1ccccc1N=Nc1ccc(NC(=O)c2ccnn2C)c(C)c1
IC50 (second compound 0.1 µM): 0.267 µM
IC50 (second compound 0.316 µM): 0.501 µM
IC50 (second compound 1 µM): 0.448 µM
IC50 (second compound 3.16 µM): 0.405 µM
IC50 (second compound 10 µM): 0.338 µM
viability, T/C [1]: 76.7%
viability, T/C [2]: 52.4%
viability, T/C [3]: 57%
viability, T/C [4]: 28.4%
viability, T/C [5]: 13.3%
viability, T/C [6]: 14.5%
viability, T/C [7]: 66.8%
viability, T/C [8]: 52.7%
viability, T/C [9]: 85.8%
viability, T/C [10]: 22.3%
viability, T/C [11]: 13.5%
viability, T/C [12]: 12.5%
viability, T/C [13]: 66.5%
viability, T/C [14]: 52.5%
viability, T/C [15]: 71.2%
viability, T/C [16]: 19.2%
viability, T/C [17]: 13.5%
viability, T/C [18]: 12.4%
viability, T/C [19]: 91.2%
viability, T/C [20]: 69.1%
viability, T/C [21]: 62.3%
viability, T/C [22]: 21.8%
viability, T/C [23]: 13.2%
viability, T/C [24]: 14.4%
viability, T/C [25]: 107%
viability, T/C [26]: 93.8%
viability, T/C [27]: 52.1%
viability, T/C [28]: 21.6%
viability, T/C [29]: 17.8%
viability, T/C [30]: 15.6%

Structure (SMILES): Nc1ncn(C2CC(O)C(CO)O2)c(=O)n1 (stereo not given) + Cc1ccccc1N=Nc1ccc(NC(=O)c2ccnn2C)c(C)c1
IC50 (second compound 0.1 µM): > 1 µM
IC50 (second compound 0.316 µM): 0.811 µM
IC50 (second compound 1 µM): > 1 µM
IC50 (second compound 3.16 µM): > 1 µM
IC50 (second compound 10 µM): > 1 µM
viability, T/C [31]: 79%
viability, T/C [32]: 86.1%
viability, T/C [1]: 92.4%
viability, T/C [2]: 62.6%
viability, T/C [3]: 55.5%
viability, T/C [4]: 50.7%
viability, T/C [33]: 88.5%
viability, T/C [34]: 104%
viability, T/C [7]: 86.6%
viability, T/C [8]: 83.8%
viability, T/C [9]: 61.9%
viability, T/C [10]: 47.4%
viability, T/C [35]: 90.5%
viability, T/C [36]: 126%
viability, T/C [13]: 96.6%
viability, T/C [14]: 90.2%
viability, T/C [15]: 94.2%
viability, T/C [16]: 65.4%
viability, T/C [37]: 106%
viability, T/C [38]: 120%
viability, T/C [19]: 110%
viability, T/C [20]: 88.3%
viability, T/C [21]: 104%
viability, T/C [22]: 67.1%
viability, T/C [39]: 138%
viability, T/C [40]: 147%
viability, T/C [25]: 140%
viability, T/C [26]: 127%
viability, T/C [27]: 95.2%
viability, T/C [28]: 88%

The next lines start with results.

IC50 (second compound 0.1 µM): 0.0272 µM
IC50 (second compound 0.316 µM): 0.0175 µM
IC50 (second compound 1 µM): 0.0269 µM
IC50 (second compound 3.16 µM): 0.0222 µM
IC50 (second compound 10 µM): 0.0439 µM
Structure (SMILES): CC[C@@]1(O)C(=O)OCc2c1cc1n(c2=O)Cc2cc3c(CN(C)C)c(O)ccc3nc2-1 + Cc1ccccc1N=Nc1ccc(NC(=O)c2ccnn2C)c(C)c1
viability, T/C (second compound 0.1 µM, first compound 0.000316 µM): 76.7%
viability, T/C (second compound 0.1 µM, first compound 0.001 µM): 79.3%
viability, T/C [31]: 89.5%
viability, T/C [32]: 78.6%
viability, T/C [1]: 45.7%
viability, T/C [2]: 23%
viability, T/C (second compound 0.316 µM, first compound 0.000316 µM): 92.1%
viability, T/C (second compound 0.316 µM, first compound 0.001 µM): 100%
viability, T/C [33]: 88.8%
viability, T/C [34]: 64.7%
viability, T/C [7]: 34.7%
viability, T/C [8]: 25.2%
viability, T/C (second compound 1 µM, first compound 0.000316 µM): 98.2%
viability, T/C (second compound 1 µM, first compound 0.001 µM): 113%
viability, T/C [35]: 114%
viability, T/C [36]: 87.8%
viability, T/C [13]: 44.6%
viability, T/C [14]: 22.9%
viability, T/C (second compound 3.16 µM, first compound 0.000316 µM): 119%
viability, T/C (second compound 3.16 µM, first compound 0.001 µM): 131%
viability, T/C [37]: 122%
viability, T/C [38]: 77.3%
viability, T/C [19]: 41.1%
viability, T/C [20]: 25.6%
viability, T/C (second compound 10 µM, first compound 0.000316 µM): 130%
viability, T/C (second compound 10 µM, first compound 0.001 µM): 122%
viability, T/C [39]: 131%
viability, T/C [40]: 107%
viability, T/C [25]: 59.9%
viability, T/C [26]: 26.3%

IC50 (second compound 0.1 µM): < 0.0316 µM
IC50 (second compound 0.316 µM): 0.0369 µM
IC50 (second compound 1 µM): 0.0421 µM
IC50 (second compound 3.16 µM): < 0.0316 µM
IC50 (second compound 10 µM): 0.165 µM
Structure (SMILES): COc1cccc2c1C(=O)c1c(O)c3c(c(O)c1C2=O)CC(O)(C(=O)CO)CC3OC1CC(N)C(O)C(C)O1 (stereo not given) + Cc1ccccc1N=Nc1ccc(NC(=O)c2ccnn2C)c(C)c1
viability, T/C [1]: 40.6%
viability, T/C [2]: 34.4%
viability, T/C [3]: 28.5%
viability, T/C [4]: 6.16%
viability, T/C [5]: 2.14%
viability, T/C [6]: 9.5%
viability, T/C [7]: 53.9%
viability, T/C [8]: 33.6%
viability, T/C [9]: 34%
viability, T/C [10]: 7.86%
viability, T/C [11]: 3.02%
viability, T/C [12]: 11.5%
viability, T/C [13]: 55%
viability, T/C [14]: 34.9%
viability, T/C [15]: 30.1%
viability, T/C [16]: 4.75%
viability, T/C [17]: 2.47%
viability, T/C [18]: 11.2%
viability, T/C [19]: 55.6%
viability, T/C [20]: 39.9%
viability, T/C [21]: 34.3%
viability, T/C [22]: 6.42%
viability, T/C [23]: 4.98%
viability, T/C [24]: 9.42%
viability, T/C [25]: 89.7%
viability, T/C [26]: 63%
viability, T/C [27]: 34.4%
viability, T/C [28]: 3.83%
viability, T/C [29]: 2.39%
viability, T/C [30]: 7.28%
